pIC50: −log10 of the molar value. Active and inactive are the calls of the source. No rule for the calls is given here.

Dual specificity protein phosphatase 1 (Homo sapiens), sequence (P28562 whole entry, looked up): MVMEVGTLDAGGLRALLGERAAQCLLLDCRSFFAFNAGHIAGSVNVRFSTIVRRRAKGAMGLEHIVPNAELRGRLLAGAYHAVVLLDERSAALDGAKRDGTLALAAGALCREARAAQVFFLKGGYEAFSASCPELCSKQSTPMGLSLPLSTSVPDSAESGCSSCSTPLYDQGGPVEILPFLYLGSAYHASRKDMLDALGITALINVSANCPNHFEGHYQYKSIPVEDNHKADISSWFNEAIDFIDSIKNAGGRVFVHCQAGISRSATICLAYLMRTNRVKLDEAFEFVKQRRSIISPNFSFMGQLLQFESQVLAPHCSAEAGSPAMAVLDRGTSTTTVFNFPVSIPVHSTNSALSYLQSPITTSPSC

This assay has as its target Dual specificity protein phosphatase 1 (Homo sapiens) (UniProt P28562). The assay can be described thus: concentration-response of DUSP1 blockers – biochemical, in vitro, confirmation, dose response (AID 551). To be noted: recombinant MKP-1 phosphatase, fluorescence substrate.
Broadly, the IC50 is the point on the concentration scale where inhibition reaches its midpoint. For `O=C1c2cccnc2C(Nc2ccc(S(=O)(=O)N3CCCCCC3)cc2)N1Cc1ccccc1` (centres undefined), the IC50 was > 50 µM (inactive).
As usually defined, the pIC50 is −log10 of the IC50, conventionally taken in molar units. `O=C1c2ccccc2-c2onc3ccc(NCCCn4ccnc4)c1c23`: the pIC50 was 4.56.
`COC(=O)C1=C(C)NC2=C(C(=O)c3ccccc32)C1c1ccc(-c2ccc(C(=O)O)cc2)o1` (centres undefined): the IC50 is > 50 µM (inactive).
Still for that read-out and setting: under `CCOC(=O)c1ccc(NC2c3ncccc3C(=O)N2Cc2ccc(F)cc2)cc1` (centres undefined) stands > 50 µM (inactive); under `N#C/C(=C(/O)CSc1nnc(Cc2cccs2)n1C1CCCCC1)c1nc2ccccc2[nH]1`, > 50 µM (inactive).
The same measure, in the same setting: next, `O=C1C(C2=C(O)c3ccccc3C2=O)=Nc2ccccc21`: > 50 µM (inactive).
As for `Cc1cc(C)n2c(SCC(=O)N3CCN(S(=O)(=O)c4ccc(Cl)cc4)CC3)nnc2n1`, the pIC50 is 4.30.
On to `CCSCCOC(=O)C1=C(C)NC2=C(C(=O)CCC2)C1c1coc2ccccc2c1=O` (centres undefined), for which the IC50 is > 50 µM (inactive).
The same measure, in the same setting: under `Oc1ccc2ccccc2c1C=NC12CN3CCN(CN(C3)C1)C2` stands > 50 µM (inactive).

(Values after PubChem BioAssay AID551 (University of Pittsburgh Molecular Library Screening Center, 2006).)
